In paper PMC8550792, “Evolution of kinase polypharmacology across HSP90 drug discovery” (Cell Chemical Biology, 2021):

Columns and labels:
Experiment in all cases: biochemical
Assay type in all cases: biochemical
382 unique human kinases [1] = biological target: T1, 382 unique human kinases (Homo sapiens, UniProt P00519, Y253H); settings: ABL1 (Y253H), [ATP] 10 µM, compound 10 uM; for remaining activity at 10 µM: read-out: % Enzyme Activity (relative to DMSO controls)
T1 construct: purchased Reaction Biology (HotSpot contract assay)
T1 sequence (P00519 whole entry Y253H): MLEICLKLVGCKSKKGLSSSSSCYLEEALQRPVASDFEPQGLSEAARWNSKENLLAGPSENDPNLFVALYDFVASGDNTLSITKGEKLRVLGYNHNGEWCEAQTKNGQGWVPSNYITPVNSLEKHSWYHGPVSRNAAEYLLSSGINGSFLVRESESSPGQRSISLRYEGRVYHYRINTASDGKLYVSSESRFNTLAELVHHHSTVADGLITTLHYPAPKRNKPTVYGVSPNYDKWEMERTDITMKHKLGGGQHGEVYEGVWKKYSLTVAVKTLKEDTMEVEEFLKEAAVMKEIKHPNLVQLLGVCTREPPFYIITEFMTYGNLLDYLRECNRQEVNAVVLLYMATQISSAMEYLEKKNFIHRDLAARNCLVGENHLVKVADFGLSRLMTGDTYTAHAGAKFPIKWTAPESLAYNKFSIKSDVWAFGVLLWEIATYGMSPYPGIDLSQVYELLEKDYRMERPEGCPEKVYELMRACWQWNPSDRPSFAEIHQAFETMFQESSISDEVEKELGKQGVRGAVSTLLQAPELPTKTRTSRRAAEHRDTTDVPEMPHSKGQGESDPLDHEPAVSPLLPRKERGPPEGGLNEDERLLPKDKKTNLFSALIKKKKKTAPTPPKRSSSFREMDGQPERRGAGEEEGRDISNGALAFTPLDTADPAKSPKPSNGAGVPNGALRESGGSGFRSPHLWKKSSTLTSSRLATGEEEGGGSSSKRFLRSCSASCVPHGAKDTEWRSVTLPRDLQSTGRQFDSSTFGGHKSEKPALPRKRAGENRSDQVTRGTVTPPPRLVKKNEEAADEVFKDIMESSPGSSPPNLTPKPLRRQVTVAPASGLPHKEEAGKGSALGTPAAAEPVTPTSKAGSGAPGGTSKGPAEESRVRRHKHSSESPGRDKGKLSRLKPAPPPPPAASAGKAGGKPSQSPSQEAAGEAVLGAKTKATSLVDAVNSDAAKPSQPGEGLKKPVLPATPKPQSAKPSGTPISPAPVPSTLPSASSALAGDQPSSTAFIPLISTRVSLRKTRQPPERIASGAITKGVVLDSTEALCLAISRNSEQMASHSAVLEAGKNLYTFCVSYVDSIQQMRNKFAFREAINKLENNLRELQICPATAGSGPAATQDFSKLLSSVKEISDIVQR

382 unique human kinases [2] = biological target: T2, 382 unique human kinases (Homo sapiens, UniProt P07949, R749T); settings: RET (R749T), 10 uM; for remaining activity at 10 µM: read-out: % Enzyme Activity (relative to DMSO controls)
T2 construct: purchased Reaction Biology (HotSpot contract assay)

382 unique human kinases [3] = biological target: T3, 382 unique human kinases (Homo sapiens, UniProt P10721, D816V/V560G); settings: c-Kit (V560G/D816V), [ATP] 20 µM, compound 10 uM; for remaining activity at 10 µM: read-out: % Enzyme Activity (relative to DMSO controls)
T3 construct: purchased Reaction Biology (HotSpot contract assay)
T3 sequence (P10721 26-976 V560G/D816V): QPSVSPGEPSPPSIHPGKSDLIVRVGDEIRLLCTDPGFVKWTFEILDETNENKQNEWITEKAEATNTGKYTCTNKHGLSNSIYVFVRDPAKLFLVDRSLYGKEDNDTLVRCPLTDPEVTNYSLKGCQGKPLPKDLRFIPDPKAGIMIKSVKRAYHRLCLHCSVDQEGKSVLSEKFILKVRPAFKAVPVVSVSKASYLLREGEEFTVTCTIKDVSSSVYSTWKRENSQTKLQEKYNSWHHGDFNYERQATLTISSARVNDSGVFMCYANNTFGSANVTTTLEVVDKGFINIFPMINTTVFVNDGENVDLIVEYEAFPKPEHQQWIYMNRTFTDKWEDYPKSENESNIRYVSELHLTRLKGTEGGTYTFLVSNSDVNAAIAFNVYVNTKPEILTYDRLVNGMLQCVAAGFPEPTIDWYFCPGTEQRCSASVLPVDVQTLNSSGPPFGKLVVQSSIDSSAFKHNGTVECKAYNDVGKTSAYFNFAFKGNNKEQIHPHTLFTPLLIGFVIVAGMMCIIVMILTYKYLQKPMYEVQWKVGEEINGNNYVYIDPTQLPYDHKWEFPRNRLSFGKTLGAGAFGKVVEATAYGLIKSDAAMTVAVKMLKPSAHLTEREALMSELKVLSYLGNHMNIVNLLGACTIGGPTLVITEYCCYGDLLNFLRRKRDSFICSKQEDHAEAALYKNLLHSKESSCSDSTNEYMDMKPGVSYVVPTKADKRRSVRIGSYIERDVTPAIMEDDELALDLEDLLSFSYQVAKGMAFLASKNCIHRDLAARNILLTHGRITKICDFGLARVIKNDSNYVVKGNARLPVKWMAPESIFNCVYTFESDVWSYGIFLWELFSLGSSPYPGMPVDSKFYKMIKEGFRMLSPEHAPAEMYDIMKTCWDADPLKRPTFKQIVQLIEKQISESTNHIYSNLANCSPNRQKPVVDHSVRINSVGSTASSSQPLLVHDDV

382 unique human kinases [4] = biological target: T4, 382 unique human kinases (Homo sapiens, UniProt Q05513); settings: PKCzeta, 10 uM; for remaining activity at 10 µM: read-out: % Enzyme Activity (relative to DMSO controls)
T4 construct: purchased Reaction Biology (HotSpot contract assay)
T4 sequence (Q05513 1-592): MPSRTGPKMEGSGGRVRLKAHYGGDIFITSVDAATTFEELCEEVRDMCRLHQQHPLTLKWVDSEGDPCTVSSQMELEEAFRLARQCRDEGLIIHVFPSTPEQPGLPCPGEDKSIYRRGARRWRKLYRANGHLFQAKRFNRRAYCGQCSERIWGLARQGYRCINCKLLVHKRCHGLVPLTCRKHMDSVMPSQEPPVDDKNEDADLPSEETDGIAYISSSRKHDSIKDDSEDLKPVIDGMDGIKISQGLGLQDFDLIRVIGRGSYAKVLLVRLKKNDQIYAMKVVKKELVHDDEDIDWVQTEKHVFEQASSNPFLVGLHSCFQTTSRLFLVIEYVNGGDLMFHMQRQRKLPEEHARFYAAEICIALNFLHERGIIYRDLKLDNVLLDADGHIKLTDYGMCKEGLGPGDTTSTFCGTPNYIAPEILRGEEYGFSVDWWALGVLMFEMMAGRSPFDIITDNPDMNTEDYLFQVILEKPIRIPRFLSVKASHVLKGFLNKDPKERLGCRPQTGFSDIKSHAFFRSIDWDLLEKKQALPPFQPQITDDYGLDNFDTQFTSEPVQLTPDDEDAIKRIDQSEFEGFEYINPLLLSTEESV

382 unique human kinases [5] = biological target: T5, 382 unique human kinases (Homo sapiens, UniProt Q16513); settings: PKN2/PRK2, 10 uM; for remaining activity at 10 µM: read-out: % Enzyme Activity (relative to DMSO controls)
T5 construct: purchased Reaction Biology (HotSpot contract assay)

382 unique human kinases [6] = biological target: T6, 382 unique human kinases (Homo sapiens, UniProt O00311); settings: kinase CDC7/DBF4, compound 10 uM; for remaining activity at 10 µM: read-out: % Enzyme Activity (relative to DMSO controls)
T6 construct: purchased Reaction Biology (HotSpot contract assay)
T6 sequence (O00311 whole entry): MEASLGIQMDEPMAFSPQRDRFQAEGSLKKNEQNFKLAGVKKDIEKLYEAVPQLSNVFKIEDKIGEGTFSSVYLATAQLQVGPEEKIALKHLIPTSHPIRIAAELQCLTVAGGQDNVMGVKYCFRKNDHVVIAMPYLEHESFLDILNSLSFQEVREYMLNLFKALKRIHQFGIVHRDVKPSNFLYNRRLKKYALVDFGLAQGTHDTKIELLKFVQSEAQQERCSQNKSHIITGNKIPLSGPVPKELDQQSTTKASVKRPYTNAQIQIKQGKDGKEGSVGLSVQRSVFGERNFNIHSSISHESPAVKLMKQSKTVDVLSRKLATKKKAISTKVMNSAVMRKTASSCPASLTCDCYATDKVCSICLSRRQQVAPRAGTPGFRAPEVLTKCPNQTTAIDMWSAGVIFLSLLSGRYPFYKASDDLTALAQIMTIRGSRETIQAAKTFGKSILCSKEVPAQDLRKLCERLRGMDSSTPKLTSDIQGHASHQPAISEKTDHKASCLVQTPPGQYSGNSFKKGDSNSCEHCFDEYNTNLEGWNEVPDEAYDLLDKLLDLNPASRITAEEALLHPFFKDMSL

382 unique human kinases [7] = biological target: T7, 382 unique human kinases (Homo sapiens, UniProt O43318); settings: kinase TAK1, compound 10 uM; for remaining activity at 10 µM: read-out: % Enzyme Activity (relative to DMSO controls)
T7 construct: purchased Reaction Biology (HotSpot contract assay)
T7 sequence (O43318 1-606): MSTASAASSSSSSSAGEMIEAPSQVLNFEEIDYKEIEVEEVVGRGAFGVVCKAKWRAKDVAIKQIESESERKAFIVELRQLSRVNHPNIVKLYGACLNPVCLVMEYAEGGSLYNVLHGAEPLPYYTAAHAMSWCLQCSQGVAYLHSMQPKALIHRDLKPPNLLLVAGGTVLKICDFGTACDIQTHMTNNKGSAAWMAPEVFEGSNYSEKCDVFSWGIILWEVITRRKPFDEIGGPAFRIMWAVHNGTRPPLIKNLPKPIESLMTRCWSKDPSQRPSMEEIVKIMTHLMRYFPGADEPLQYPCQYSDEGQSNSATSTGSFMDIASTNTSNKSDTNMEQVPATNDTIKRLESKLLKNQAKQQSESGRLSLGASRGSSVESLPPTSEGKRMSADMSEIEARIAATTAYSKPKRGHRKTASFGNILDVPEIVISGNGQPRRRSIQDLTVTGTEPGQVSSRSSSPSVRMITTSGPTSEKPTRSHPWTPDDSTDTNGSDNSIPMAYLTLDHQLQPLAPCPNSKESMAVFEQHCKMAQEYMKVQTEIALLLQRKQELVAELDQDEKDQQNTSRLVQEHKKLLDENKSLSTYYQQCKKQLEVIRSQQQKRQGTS

382 unique human kinases [8] = biological target: T8, 382 unique human kinases (Homo sapiens, UniProt Q06187, E41K); settings: BTK (E41K), 10 uM; for remaining activity at 10 µM: read-out: % Enzyme Activity (relative to DMSO controls)
T8 construct: purchased Reaction Biology (HotSpot contract assay)
T8 sequence (Q06187 whole entry E41K): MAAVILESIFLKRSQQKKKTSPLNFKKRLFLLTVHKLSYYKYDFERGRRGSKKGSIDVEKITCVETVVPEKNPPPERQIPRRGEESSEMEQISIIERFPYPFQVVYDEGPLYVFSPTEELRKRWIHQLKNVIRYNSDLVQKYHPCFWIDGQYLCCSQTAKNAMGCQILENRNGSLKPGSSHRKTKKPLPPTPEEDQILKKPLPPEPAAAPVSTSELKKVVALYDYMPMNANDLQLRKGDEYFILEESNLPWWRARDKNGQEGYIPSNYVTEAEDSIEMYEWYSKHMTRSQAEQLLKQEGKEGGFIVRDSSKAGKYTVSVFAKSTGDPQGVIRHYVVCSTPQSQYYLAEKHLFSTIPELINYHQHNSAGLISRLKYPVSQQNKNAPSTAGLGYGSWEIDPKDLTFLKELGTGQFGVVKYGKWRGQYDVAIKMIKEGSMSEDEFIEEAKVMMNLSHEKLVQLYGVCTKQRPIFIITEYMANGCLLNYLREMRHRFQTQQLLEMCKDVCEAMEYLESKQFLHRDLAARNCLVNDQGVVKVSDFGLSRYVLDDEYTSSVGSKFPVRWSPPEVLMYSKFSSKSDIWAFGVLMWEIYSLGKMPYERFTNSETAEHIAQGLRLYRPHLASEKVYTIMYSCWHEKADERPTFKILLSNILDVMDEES

382 unique human kinases [9] = biological target: T9, 382 unique human kinases (Homo sapiens, UniProt Q13164); settings: kinase ERK5/MAPK7, compound 10 uM; for remaining activity at 10 µM: read-out: % Enzyme Activity (relative to DMSO controls)
T9 construct: purchased Reaction Biology (HotSpot contract assay)
T9 sequence (Q13164 whole entry): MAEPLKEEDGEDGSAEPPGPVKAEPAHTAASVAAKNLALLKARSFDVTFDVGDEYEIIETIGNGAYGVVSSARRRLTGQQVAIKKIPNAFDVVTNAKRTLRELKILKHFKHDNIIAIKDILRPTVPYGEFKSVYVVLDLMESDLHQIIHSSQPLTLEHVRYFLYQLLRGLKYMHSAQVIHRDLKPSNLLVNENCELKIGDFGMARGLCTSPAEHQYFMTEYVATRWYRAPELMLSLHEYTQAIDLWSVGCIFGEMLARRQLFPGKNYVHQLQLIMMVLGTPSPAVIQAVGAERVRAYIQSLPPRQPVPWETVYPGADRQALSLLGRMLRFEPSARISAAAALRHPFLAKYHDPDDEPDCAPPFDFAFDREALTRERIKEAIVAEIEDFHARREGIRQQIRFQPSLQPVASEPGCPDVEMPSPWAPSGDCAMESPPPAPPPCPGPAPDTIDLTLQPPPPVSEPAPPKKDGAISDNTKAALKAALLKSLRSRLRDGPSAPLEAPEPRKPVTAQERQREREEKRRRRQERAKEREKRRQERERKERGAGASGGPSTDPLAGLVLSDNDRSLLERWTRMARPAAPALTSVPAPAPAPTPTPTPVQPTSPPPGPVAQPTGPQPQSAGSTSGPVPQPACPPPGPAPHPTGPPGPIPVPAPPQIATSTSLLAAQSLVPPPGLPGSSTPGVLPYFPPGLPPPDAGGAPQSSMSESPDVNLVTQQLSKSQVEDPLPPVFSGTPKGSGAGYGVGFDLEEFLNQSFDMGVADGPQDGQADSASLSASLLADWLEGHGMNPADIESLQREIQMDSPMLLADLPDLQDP

382 unique human kinases [10] = biological target: T10, 382 unique human kinases (Homo sapiens, UniProt Q8IVH8); settings: kinase GLK/MAP4K3, compound 10 uM; for remaining activity at 10 µM: read-out: % Enzyme Activity (relative to DMSO controls)
T10 construct: purchased Reaction Biology (HotSpot contract assay)
T10 sequence (Q8IVH8 1-894): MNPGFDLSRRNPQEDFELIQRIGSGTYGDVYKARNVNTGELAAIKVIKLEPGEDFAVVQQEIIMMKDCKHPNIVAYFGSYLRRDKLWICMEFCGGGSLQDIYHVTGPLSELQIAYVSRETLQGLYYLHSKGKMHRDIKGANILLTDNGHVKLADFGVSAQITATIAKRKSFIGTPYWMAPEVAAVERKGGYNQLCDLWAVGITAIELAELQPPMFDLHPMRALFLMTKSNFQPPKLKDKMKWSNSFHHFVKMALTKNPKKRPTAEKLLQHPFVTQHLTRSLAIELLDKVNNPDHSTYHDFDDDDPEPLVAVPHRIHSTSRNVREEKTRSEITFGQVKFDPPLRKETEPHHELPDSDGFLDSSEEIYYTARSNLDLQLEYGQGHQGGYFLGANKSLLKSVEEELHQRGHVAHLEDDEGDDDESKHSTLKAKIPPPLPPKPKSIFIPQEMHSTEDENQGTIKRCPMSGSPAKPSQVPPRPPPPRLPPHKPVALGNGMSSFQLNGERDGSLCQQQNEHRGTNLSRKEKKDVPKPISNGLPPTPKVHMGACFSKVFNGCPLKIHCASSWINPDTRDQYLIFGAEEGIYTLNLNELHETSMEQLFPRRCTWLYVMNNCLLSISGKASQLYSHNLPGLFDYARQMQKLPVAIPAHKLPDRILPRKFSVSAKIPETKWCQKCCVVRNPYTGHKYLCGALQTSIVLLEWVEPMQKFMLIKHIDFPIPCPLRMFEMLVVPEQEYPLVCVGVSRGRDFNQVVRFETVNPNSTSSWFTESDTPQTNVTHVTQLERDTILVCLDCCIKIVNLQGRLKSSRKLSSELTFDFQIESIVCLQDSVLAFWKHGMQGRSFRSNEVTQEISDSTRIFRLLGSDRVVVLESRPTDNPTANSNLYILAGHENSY

382 unique human kinases [11] = biological target: T11, 382 unique human kinases (Homo sapiens, UniProt Q9UPE1); settings: MSSK1/STK23, 10 uM; for remaining activity at 10 µM: read-out: % Enzyme Activity (relative to DMSO controls)
T11 construct: purchased Reaction Biology (HotSpot contract assay)
T11 sequence (Q9UPE1 whole entry): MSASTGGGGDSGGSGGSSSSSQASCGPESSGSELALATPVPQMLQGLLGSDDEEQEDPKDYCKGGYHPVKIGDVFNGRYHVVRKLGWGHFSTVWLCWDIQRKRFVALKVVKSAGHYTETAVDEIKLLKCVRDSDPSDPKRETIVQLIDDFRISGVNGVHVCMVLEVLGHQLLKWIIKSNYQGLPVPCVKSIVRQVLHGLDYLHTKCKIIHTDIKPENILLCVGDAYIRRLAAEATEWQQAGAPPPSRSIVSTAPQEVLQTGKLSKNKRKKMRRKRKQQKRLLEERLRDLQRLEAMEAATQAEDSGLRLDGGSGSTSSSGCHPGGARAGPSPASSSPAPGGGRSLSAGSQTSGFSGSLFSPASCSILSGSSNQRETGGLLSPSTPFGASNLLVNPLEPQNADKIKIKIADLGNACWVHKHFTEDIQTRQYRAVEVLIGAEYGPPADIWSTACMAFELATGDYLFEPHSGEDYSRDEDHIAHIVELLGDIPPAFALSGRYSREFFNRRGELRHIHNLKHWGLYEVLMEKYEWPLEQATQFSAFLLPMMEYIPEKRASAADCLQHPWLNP

Row | SMILES | remaining activity at 10 µM (382 unique human kinases [1]) [%] | remaining activity at 10 µM (382 unique human kinases [2]) [%] | remaining activity at 10 µM (382 unique human kinases [3]) [%] | remaining activity at 10 µM (382 unique human kinases [4]) [%] | remaining activity at 10 µM (382 unique human kinases [5]) [%] | remaining activity at 10 µM (382 unique human kinases [6]) [%] | remaining activity at 10 µM (382 unique human kinases [7]) [%] | remaining activity at 10 µM (382 unique human kinases [8]) [%] | remaining activity at 10 µM (382 unique human kinases [9]) [%] | remaining activity at 10 µM (382 unique human kinases [10]) [%] | remaining activity at 10 µM (382 unique human kinases [11]) [%] | further results
1 | CCNC(=O)c1noc(-c2cc(C(C)C)c(O)cc2O)c1-c1ccc(CN2CCOCC2)cc1 [Luminespib] | 6.94 | 98.4 | 61.7 | 102 | 99.3 | – | – | – | – | – | – | % Enzyme Activity (relative to DMSO controls) (382 unique human kinases [1]): 6.34%; % Enzyme Activity (relative to DMSO controls) (382 unique human kinases [2]): 97.79%; % Enzyme Activity (relative to DMSO controls) (382 unique human kinases [3]): 61.63%; % Enzyme Activity (relative to DMSO controls) (382 unique human kinases [4]): 101.96%; % Enzyme Activity (relative to DMSO controls) (382 unique human kinases [5]): 98.60%
2 | CC(C)c1cc(-c2n[nH]c(=O)n2-c2ccc3c(ccn3C)c2)c(O)cc1O [Ganetespib (STA9090)] | – | – | – | – | – | 85.9 | 85.8 | 65.4 | 91.3 | 89.8 | 73.6 | –
3 | CCNC(=O)c1noc(-c2cc(C(C)C)c(O)cc2O)c1-c1ccc(CN2CCOCC2)cc1 [Luminespib (AUY-922)] | – | – | – | – | – | 107 | 96.7 | 96.8 | 86.6 | 87.1 | 95.8 | % Enzyme Activity (relative to DMSO controls) (382 unique human kinases [6]): 105.45%; % Enzyme Activity (relative to DMSO controls) (382 unique human kinases [7]): 96.28%; % Enzyme Activity (relative to DMSO controls) (382 unique human kinases [8]): 96.25%; % Enzyme Activity (relative to DMSO controls) (382 unique human kinases [9]): 86.48%; % Enzyme Activity (relative to DMSO controls) (382 unique human kinases [10]): 86.46%; % Enzyme Activity (relative to DMSO controls) (382 unique human kinases [11]): 95.48%
4 | CC(C)c1cc(-c2n[nH]c(=O)n2-c2ccc3c(ccn3C)c2)c(O)cc1O [Ganetespib] | 9.65 | 106 | 24.3 | 92.3 | 95.7 | – | – | – | – | – | – | –
